Values of other authors as cited in patent US11576377B2, “Antimicrobial mixtures of an essential oil derived bactericide and an essential oil derived fungicide which extend the shelf-life of perishable agricultural commodities” (priority 2013, dated 2023).

Legend:
peaches = details: Mari et al. 2008
cherry stem = details: Tsao and Zhou, 2000

SMILES	Phytotoxic effect on peaches (peaches)	Phytotoxic effect on cherry stem (cherry stem)
C=CCN=C=S [allyl isothiocyanate]	causes discoloration of peaches	
Cc1ccc(C(C)C)c(O)c1 [thymol]		causes browning of cherry stem
